We go through one compound from patent US6894168B2, “Carbamoyl tetrahydropyridine derivatives” (Taisho Pharmaceutical Co., Ltd., priority 1999, dated 2005).

For the experiment, the target named is T1, CRF receptor (Rattus norvegicus, UniProt P35353).
T1 construct: The frontal cortex of rats was homogenized in a 50 mM Tris hydrochloric acid buffer; from tissue; host or cells: rat frontal cortex membranes
T1 sequence (P35353 24-415): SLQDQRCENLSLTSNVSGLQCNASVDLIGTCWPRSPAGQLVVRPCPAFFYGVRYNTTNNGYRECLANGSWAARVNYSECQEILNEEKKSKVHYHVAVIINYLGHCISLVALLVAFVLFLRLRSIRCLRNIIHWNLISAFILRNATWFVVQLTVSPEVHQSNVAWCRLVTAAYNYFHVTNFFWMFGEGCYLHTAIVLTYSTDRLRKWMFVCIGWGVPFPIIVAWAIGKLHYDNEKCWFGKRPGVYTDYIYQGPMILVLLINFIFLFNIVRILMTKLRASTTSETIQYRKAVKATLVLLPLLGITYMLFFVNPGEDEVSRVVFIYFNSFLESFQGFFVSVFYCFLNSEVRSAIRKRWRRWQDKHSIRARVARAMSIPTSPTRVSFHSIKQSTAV
In words: CRF receptor binding experiment (125I-CRF, rat frontal cortex membranes). The note with it: frontal cortex membranes of rats 0.3 mg protein/ml; 125I-CRF 0.2 nM; 2 hours at 25° C.; read-out: IC50 (concentration of the test agent for controlling 50% of the binding of 125I-CRF). As to the method: Experimental Example [CRF receptor binding experiment]
As a receptor preparation, the frontal cortex membranes of rats were employed.
As a ^125I labeled ligand, ^125I-CRF was employed.
The binding reaction employing a ^125I labeled ligand was carried out in the following method as described in The Journal of Neuroscience, 7, 88 (1987).
Preparation of the receptor membrane preparations: The frontal cortex of rats was homogenized in a 50 mM Tris hydrochloric acid buffer (pH 7.0) containing 10 mM MgCl2 and 2 mM EDTA, and subsequently, the homogenized mixture was centrifuged at 48,000×g. The precipitate was washed once with the Tris hydrochloric acid buffer. The precipitate was suspended in a 50 mM tris hydrochloric acid buffer (pH 7.0) containing 10 mM MgCl2, 2 mM EDTA, 0.1% bovine serum albumin, and 100 kalliklein unit/ml aprotinin, to produce a membrane preparation.
CRF receptor binding experiment: The membrane preparation (0.3 mg protein/ml), ^125I-CRF (0.2 nM), and a test agent were reacted for 2 hours at 25° C. […] After completion of the washing, the radioactivity of the filter paper was measured by a gamma counter.
The binding quantity obtained when the reaction was carried out in the presence of 1 μM CRF was determined as nonspecific binding of ^125I-CRF, while the difference between the total binding and the nonspecific binding was determined as a specific binding. […]

Turning to `CSc1cc(C(C)C)ccc1-n1cc(C)c2c(N3CC=C(C(N)=O)CC3)nc(C)nc21` [Com. No. 07, 4-(4-carbamoyl-1,2,3,6-tetrahydropyridin-1-yl)-2,5-dimethyl-7-(4-isopropyl-2-methylthiophenyl)-7H-pyrrolo[2,3-d]pyrimidine], the IC50 is at most 100 nM.
